From patent publication US20200325127A1, “PYRIDIN-3-YL ACETIC ACID DERIVATIVES AS INHIBITORS OF HUMAN IMMUNODEFICIENCY VIRUS REPLICATION” (priority 2016, published 2020)

system: NL-RLuc virus; assay: Inhibition of HIV replication (NL-RLuc luciferase reporter virus in MT-2 cells); assay type: cell-based; details: Human immunodeficiency virus 1, MT2, 120 h, read-out: Activity
Text: Inhibition of HIV replication: A recombinant NL-RLuc proviral clone was constructed in which a section of the nef gene from NL4-3 was replaced with the Renilla Luciferase gene. This virus is fully infectious and can undergo multiple cycles of replication in cell culture. In addition, the luciferous reporter provides a simple and easy method for quantitating the extent of virus growth and consequently, the antiviral activity of test compounds. The plasmid pNLRLuc contains the proviral NL-Rluc DNA cloned into pUC18 at the PvuII site. The NL-RLuc virus was prepared by transfection of 293T cells with the plasmid pNLRLuc. Transfections were performed using the LipofectAMINE PLUS kit from Invitrogen (Carlsbad, Calif.) according to the manufacturer and the virus generated was titered in MT-2 cells. For susceptibility analyses, the titrated virus was used to infect MT-2 cells in the presence of compound, and after 5 days of incubation, cells were processed and quantitated for virus growth by the amount of expressed luciferase. Assay media was RPMI 1640 supplemented with 10% heat inactivated fetal bovine serum (FBS), 100 units/ml penicillin G/100 units/ml streptomycin, 10 mM HEPES buffer pH 7.55 and 2 mM L-glutamine. The results from at least 2 experiments were used to calculate the EC50 values. Luciferase was quantitated using the Dual Luciferase kit from Promega (Madison, Wis.). Susceptibility of viruses to compounds was determined by incubation in the presence of serial dilutions of the compound. The 50% effective concentration (EC50) was calculated by using the exponential form of the median effect equation where (Fa)=1/[1+(ED50/drug conc.)^m](Johnson V A, Byington R T. Infectivity Assay. In Techniques in HIV Research. ed. Aldovini A, Walker B D. 71-76. New York: Stockton Press. 1990). Activity equal to A refers to a compound having an EC50≤100 nM, while B and C denote compounds having an EC50 between 100 nM and 1 uM (B) or >1 uM (C).

**Q.** Which EC50 does the source give for `Cc1nc(C)c([C@H](OC(C)(C)C)C(=O)O)c(N2CCC(C)(C)CC2)c1-c1ccc2c(c1)CCN(c1nnnn1-c1ccccc1)C2` [Compound 1] here?
**A.** < 0.1 µM

**Q.** How did the EC50 turn out when `Cc1nc(C)c([C@H](OC(C)(C)C)C(=O)O)c(N2CCC(C)(C)CC2)c1-c1ccc2c(c1)CCN(c1nc(-c3ccccc3)cs1)C2` [Compound 3] was run?
**A.** < 0.1 µM

**Q.** With `Cc1nc(C)c([C@H](OC(C)(C)C)C(=O)O)c(N2CCC(C)(C)CC2)c1-c1ccc2c(c1)CCN(c1nc3c(s1)C(=O)NCC3)C2` [Compound 4] as the molecule, how does the EC50 read?
**A.** < 0.1 µM

**Q.** How did the EC50 turn out when `Cc1nc(C)c([C@H](OC(C)(C)C)C(=O)O)c(N2CCC(C)(C)CC2)c1-c1ccc2c(c1)CCN(c1nccs1)C2` [Compound 6] was run?
**A.** < 0.1 µM

**Q.** `Cc1nc(C)c([C@H](OC(C)(C)C)C(=O)O)c(N2CCC(C)(C)CC2)c1-c1ccc2c(c1)CCN(c1nccc(-c3ccccc3)n1)C2` [Compound 8] was tested. Which EC50 did it give?
**A.** < 0.1 µM

**Q.** `Cc1nc(C)c([C@H](OC(C)(C)C)C(=O)O)c(N2CCC(C)(C)CC2)c1-c1ccc2c(c1)CCN(c1nnc(-c3ccccc3)cc1C(N)=O)C2` [Compound 9] was tested. Which EC50 did it give?
**A.** < 0.1 µM

**Q.** For `Cc1nc(C)c([C@H](OC(C)(C)C)C(=O)O)c(N2CCC(C)(C)CC2)c1-c1ccc2c(c1)CCN(c1nccc(N3CCOCC3)n1)C2` [Compound 10], which EC50 is on record?
**A.** < 0.1 µM

**Q.** Which EC50 does the source give for `Cc1nc(C)c([C@H](OC(C)(C)C)C(=O)O)c(N2CCC(C)(C)CC2)c1-c1ccc2c(c1)CCN(c1nccc(C(F)(F)F)n1)C2` [Compound 11] here?
**A.** < 0.1 µM

**Q.** `COc1ccnc(N2CCc3cc(-c4c(C)nc(C)c([C@H](OC(C)(C)C)C(=O)O)c4N4CCC(C)(C)CC4)ccc3C2)n1` [Compound 12] was tested. Which EC50 did it give?
**A.** < 0.1 µM

**Q.** Which EC50 does the source give for `COc1nc(O)nc(N2CCc3cc(-c4c(C)nc(C)c([C@H](OC(C)(C)C)C(=O)O)c4N4CCC(C)(C)CC4)ccc3C2)n1` [Compound 13] here?
**A.** 0.1 to 1 µM

**Q.** Which EC50 does the source give for `COc1cc(N2CCc3cc(-c4c(C)nc(C)c([C@H](OC(C)(C)C)C(=O)O)c4N4CCC(C)(C)CC4)ccc3C2)nc(OC)n1` [Compound 14] here?
**A.** < 0.1 µM

**Q.** For `Cc1nc(C)c([C@H](OC(C)(C)C)C(=O)O)c(N2CCC(C)(C)CC2)c1-c1ccc2c(c1)CCN(c1ncnc3c1CCCC3)C2` [Compound 15], which EC50 is on record?
**A.** < 0.1 µM

**Q.** How did the EC50 turn out when `Cc1nc(C)c([C@H](OC(C)(C)C)C(=O)O)c(N2CCC(C)(C)CC2)c1-c1ccc2c(c1)CCN(c1ncccc1C(=O)O)C2` [Compound 16] was run?
**A.** 0.1 to 1 µM

**Q.** With `Cc1cnc(N2CCc3cc(-c4c(C)nc(C)c([C@H](OC(C)(C)C)C(=O)O)c4N4CCC(C)(C)CC4)ccc3C2)nc1` [Compound 17] as the molecule, how does the EC50 read?
**A.** < 0.1 µM

**Q.** Which EC50 does the source give for `Cc1nc(C)c([C@H](OC(C)(C)C)C(=O)O)c(N2CCC(C)(C)CC2)c1-c1ccc2c(c1)CCN(c1ncccn1)C2` [Compound 18] here?
**A.** < 0.1 µM

**Q.** `Cc1cc(N2CCc3cc(-c4c(C)nc(C)c([C@H](OC(C)(C)C)C(=O)O)c4N4CCC(C)(C)CC4)ccc3C2)ncn1` [Compound 19] was tested. Which EC50 did it give?
**A.** < 0.1 µM

**Q.** `Cc1nc(C)c([C@H](OC(C)(C)C)C(=O)O)c(N2CCC(C)(C)CC2)c1-c1ccc2c(c1)CCN(c1ccncn1)C2` [Compound 20] was tested. Which EC50 did it give?
**A.** < 0.1 µM

**Q.** How did the EC50 turn out when `Cc1nc(C)c([C@H](OC(C)(C)C)C(=O)O)c(N2CCC(C)(C)CC2)c1-c1ccc2c(c1)CCN(c1ncc(F)cn1)C2` [Compound 21] was run?
**A.** < 0.1 µM

**Q.** How did the EC50 turn out when `Cc1nc(C)c([C@H](OC(C)(C)C)C(=O)O)c(N2CCC(C)(C)CC2)c1-c1ccc2c(c1)CCN(c1ncc(C#N)cn1)C2` [Compound 22] was run?
**A.** 0.1 to 1 µM

**Q.** Which EC50 does the source give for `Cc1nc(C)c([C@H](OC(C)(C)C)C(=O)O)c(N2CCC(C)(C)CC2)c1-c1ccc2c(c1)CCN(c1ncc(Cl)cn1)C2` [Compound 23] here?
**A.** < 0.1 µM

**Q.** For `Cc1ncnc(N2CCc3cc(-c4c(C)nc(C)c([C@H](OC(C)(C)C)C(=O)O)c4N4CCC(C)(C)CC4)ccc3C2)c1F` [Compound 24], which EC50 is on record?
**A.** < 0.1 µM

**Q.** For `Cc1nc(C)c([C@H](OC(C)(C)C)C(=O)O)c(N2CCC(C)(C)CC2)c1-c1ccc2c(c1)CCN(c1ncncc1F)C2` [Compound 25], which EC50 is on record?
**A.** < 0.1 µM

**Q.** For `Cc1nc(C)c([C@H](OC(C)(C)C)C(=O)O)c(N2CCC(C)(C)CC2)c1-c1ccc2c(c1)CCN(c1nccc(C#N)n1)C2` [Compound 26], which EC50 is on record?
**A.** < 0.1 µM

same assay, conditions: Human immunodeficiency virus 1, MT2, 120 h, read-out: EC50 μM

**Q.** With `Cc1nc(C)c([C@H](OC(C)(C)C)C(=O)O)c(N2CCC(C)(C)CC2)c1-c1ccc2c(c1)CCN(c1nnnn1-c1ccccc1)C2` [Compound 1] as the molecule, how does the EC50 read?
**A.** 0.006 µM

**Q.** How did the EC50 turn out when `Cc1nc(C)c([C@H](OC(C)(C)C)C(=O)O)c(N2CCC(C)(C)CC2)c1-c1ccc2c(c1)CCN(c1nccs1)C2` [Compound 6] was run?
**A.** 0.007 µM

**Q.** For `COc1nc(O)nc(N2CCc3cc(-c4c(C)nc(C)c([C@H](OC(C)(C)C)C(=O)O)c4N4CCC(C)(C)CC4)ccc3C2)n1` [Compound 13], which EC50 is on record?
**A.** 0.278 µM

**Q.** `Cc1nc(C)c([C@H](OC(C)(C)C)C(=O)O)c(N2CCC(C)(C)CC2)c1-c1ccc2c(c1)CCN(c1ccncn1)C2` [Compound 20] was tested. Which EC50 did it give?
**A.** 0.002 µM
